For the experiment, the target named is T1, PRMT5-MEP50 enzyme complex (Homo sapiens, UniProt O14744).
T1 construct: purchased BPS Bioscience (USA) 51045
T1 sequence (O14744 2-637 limits assumed): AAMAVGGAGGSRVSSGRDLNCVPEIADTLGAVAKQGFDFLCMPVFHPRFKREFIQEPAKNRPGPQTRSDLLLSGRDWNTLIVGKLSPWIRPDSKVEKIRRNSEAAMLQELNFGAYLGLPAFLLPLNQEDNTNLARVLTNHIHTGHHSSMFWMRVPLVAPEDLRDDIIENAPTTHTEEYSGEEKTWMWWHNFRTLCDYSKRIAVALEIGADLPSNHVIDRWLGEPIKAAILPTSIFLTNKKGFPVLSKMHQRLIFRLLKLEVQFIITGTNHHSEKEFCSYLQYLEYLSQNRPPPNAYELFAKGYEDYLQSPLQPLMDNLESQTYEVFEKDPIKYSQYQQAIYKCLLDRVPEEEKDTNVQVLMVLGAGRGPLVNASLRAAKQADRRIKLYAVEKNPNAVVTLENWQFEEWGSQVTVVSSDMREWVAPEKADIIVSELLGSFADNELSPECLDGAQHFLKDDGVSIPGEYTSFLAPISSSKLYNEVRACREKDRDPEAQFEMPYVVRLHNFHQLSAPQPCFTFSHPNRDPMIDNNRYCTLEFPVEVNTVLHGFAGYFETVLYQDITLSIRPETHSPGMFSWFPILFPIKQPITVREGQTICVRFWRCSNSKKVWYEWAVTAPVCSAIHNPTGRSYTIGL
T1 sequence (Q9BQA1 2-342 partner limits assumed): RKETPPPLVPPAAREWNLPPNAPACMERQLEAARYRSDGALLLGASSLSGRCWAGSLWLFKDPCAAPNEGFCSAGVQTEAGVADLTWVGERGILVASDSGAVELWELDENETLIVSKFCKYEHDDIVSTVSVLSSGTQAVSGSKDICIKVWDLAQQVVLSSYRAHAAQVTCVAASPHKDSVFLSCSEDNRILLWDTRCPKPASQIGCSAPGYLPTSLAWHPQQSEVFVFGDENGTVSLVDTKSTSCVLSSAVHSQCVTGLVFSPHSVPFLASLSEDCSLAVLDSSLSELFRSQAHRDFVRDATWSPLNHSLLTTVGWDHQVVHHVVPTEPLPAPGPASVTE
Nature of the experiment: In vitro PRMT5 enzyme activity assay (methylation of histone H4 arginine H4R3, ELISA absorbance at 450 nm). It counts as biochemical. To be noted: S-adenosylmethionine, histone H4 peptide, 2 hours at room temperature, 8 points 10 μM to 0.128 nM. The method, then: Method for Measuring Enzyme Activity
In vitro assay: PRMT5-MEP50 enzyme complex, cofactor S-adenosylmethionine (SAM) and histone H4 peptide were reacted in vitro, and methylation of arginine (H4R3) —which is the third amino acid of histone H4—was measured in order to measure the enzyme activity of PRMT5.
Reagents: PRMT5-MEP50 enzyme complex (Catalog No. 51045), blocking buffer (52100-B), histone methyltransferase reaction buffer 2 (4×HMT assay buffer 2, Catalog No. 52170), and primary antibody (primary antibody 4-3, Catalog No. 52150) were purchased from BPS Bioscience (USA). The histone H4 peptide (1-20 amino acids) was custom made by Komabiotech (Korea) and used. S-adenosylmethionine was purchased from NEB (New England Biolabs, USA, Catalog No. B9003S). Plates for coating histone H4 peptide, washing buffer and color development reagent were purchased from the following vendors: Plate (Immobilizer™-Amino Plate, NUNC, Denmark, Catalog No. 436023), carbonate-bicarbonate buffer (Sigma-Aldrich, USA, Catalog No. C3041), washing buffer (10×TBST, Biosesang, Korea, Catalog No. T2005), TMB ELISA substrate (Abcam, UK, Catalog No. ab210902), horseradish peroxidase (HRP)-conjugated antibody (Abcam, UK, Catalog No. ab6721).
Experimental procedure: The histone H4 peptide was diluted with carbonate-bicarbonate buffer and prepared to 100 μg/mL, and then dispensed onto the plate per 100 μL and reacted at 37° C. for 1 hour. PRMT5-MEP50 enzyme complex and S-adenosylmethionine were diluted with histone methyltransferase reaction buffer to prepare 5 μg/mL and 2 μM, respectively, and then 20 μL of PRMT5-MEP50 enzyme complex and 25 μL of S-adenosylmethionine were dispensed onto the plate prepared above. 5 μL of the compound diluted with 10% dimethyl sulfoxide solution was added thereto and reacted at room temperature for 2 hours (final volume=50 μL). The concentration of the compound was diluted 1:5 from 10 μM until the lowest concentration of 0.128 nM, and 8 points were used for the test. After preparing the primary antibody by diluting 1:2000 with blocking buffer, 100 μL was added to the plate and reacted at room temperature for 1 hour. After preparing horseradish peroxidase-conjugated antibody by diluting 1:10,000 with blocking buffer, 100 μL was added to the plate and reacted at room temperature for 1 hour. 100 μL of TMB substrate was added and reacted for 3 minutes at room temperature, and 100 μL of 1 N sulfuric acid was then added to terminate the reaction. Then, the absorbance at 450 nm was measured to calculate the IC50 value of the compound. (+++: 1 to 100 nM, ++: greater than 100 to 1,000 nM, +: greater than 1,000 to 10,000 nM)
Background: ELISA stands for enzyme-linked immunosorbent assay.
Take `O=C1c2ccc(NC3CCCNC3)cc2CCN1C[C@H](O)CN1CCc2ccccc2C1` (stereo partly drawn) [Example 77, 2-[(2R)-3-(3,4-dihydro-1H-isoquinolin-2-yl)-2-hydroxy-propyl]-6-(3-piperidylamino)-3,4-dihydroisoquinolin-1-one]: the IC50 (usually the concentration at which inhibition is half-maximal) was in the range of 100 to 1000 nM.

With `CC(=O)N1CCN(c2ccc3c(c2)CCN(C(C)C(O)CN2CCc4ccccc4C2)C3=O)CC1` (stereo not shown) [Example 129, 6-(4-acetylpiperazin-1-yl)-2-[3-(3,4-dihydro-1H-isoquinolin-2-yl)-2-hydroxy-1-methyl-propyl]-3,4-dihydroisoquinolin-1-one], the IC50 lay within 100 to 1000 nM.

Compound `O=C1c2ccc(NCC3CCOCC3)cc2CCN1C[C@H](O)CN1CCc2ccccc2C1` [Example 23, 2-[(2R)-3-(3,4-dihydro-1H-isoquinolin-2-yl)-2-hydroxy-propyl]-6-(tetrahydropyran-4-ylmethylamino)-3,4-dihydroisoquinolin-1-one] came in with an IC50 of 1 to 100 nM.

In turn, `CC(C)N1CCN(c2ccc3c(c2)CCN(C[C@H](O)CN2CCc4ccccc4C2)C3=O)CC1` [Example 64, [(2R)-3-(3,4-dihydro-1H-isoquinolin-2-yl)-2-hydroxy-propyl]-6-(4-isopropylpiperazin-1-yl)-3,4-dihydroisoquinolin-1-one] yielded an IC50 of 1 to 100 nM.

Turning to `O=C1c2ccc(C#Cc3ccncc3)cc2CCN1C[C@H](O)CN1CCc2ccccc2C1` [Example 138, 2-[(2R)-3-(3,4-dihydro-1H-isoquinolin-2-yl)-2-hydroxypropyl]-6-[2-(4-pyridyl)ethynyl]-3,4-dihydroisoquinolin-1-one], the IC50 fell in the range of 100 to 1000 nM.

In turn, `CCN(CC)C1CCN(c2ccc3c(c2)C(C)(C)CN(C[C@H](O)CN2CCc4ccccc4C2)C3=O)CC1` [Example 123, 6-[4-(diethylamino)-1-piperidyl]-2-[(2R)-3-(3,4-dihydro-1H-isoquinolin-2-yl)-2-hydroxy-propyl]-4,4-dimethyl-3H-isoquinolin-1-one] yielded an IC50 of 100 to 1000 nM.

Compound `O=C1c2ccc(OC3CCN(C4COC4)CC3)cc2CCN1C[C@H](O)CN1CCc2ccccc2C1` [Example 136, 2-[(2R)-3-(3,4-dihydro-1H-isoquinolin-2-yl)-2-hydroxy-propyl]-6-[[1-(oxetan-3-yl)-4-piperidyl]oxy]-3,4-dihydroisoquinolin-1-one] came in with an IC50 of 1 to 100 nM.

With `CC(C)(C)OC(=O)N1CC=C(c2ccc3c(c2)CCN(C[C@H](O)CN2CCc4ccccc4C2)C3=O)CC1` [Example 56, tert-butyl 4-[2-[(2R)-3-(3,4-dihydro-1H-isoquinolin-2-yl)-2-hydroxy-propyl]-1-oxo-3,4-dihydroisoquinolin-6-yl]-3,6-dihydro-2H-pyridine-1-carboxylate], the IC50 lay within 1 to 100 nM.

In the case of `O=C1c2ccc(N3CCS(=O)(=O)CC3)cc2CCN1C[C@H](O)CN1CCc2ccccc2C1` [Example 49, 2-[(2R)-3-(3,4-dihydro-1H-isoquinolin-2-yl)-2-hydroxy-propyl]-6-(1,1-dioxo-1,4-thiazinan-4-yl)-3,4-dihydroisoquinolin-1-one], the IC50 lay within 1 to 100 nM.

As to `O=C1c2ccc(N3CCN(C(=O)C(F)(F)F)CC3)cc2CCN1C[C@H](O)CN1CCc2ccccc2C1` [Example 62, 2-[(2R)-3-(3,4-dihydro-1H-isoquinolin-2-yl)-2-hydroxy-propyl]-6-[4-(2,2,2-trifluoroacetyl)piperazin-1-yl]-3,4-dihydroisoquinolin-1-one], the IC50 lay within 1 to 100 nM.

In turn, `CC(C)(O)CNc1ccc2c(c1)CCN(C[C@H](O)CN1CCc3ccccc3C1)C2=O` [Example 25, 2-[(2R)-3-(3,4-dihydro-1H-isoquinolin-2-yl)-2-hydroxy-propyl]-6-[(2-hydroxy-2-methyl-propyl)amino]-3,4-dihydroisoquinolin-1-one] showed an IC50 of 1 to 100 nM.

Compound `CC1COCCN1c1ccc2c(c1)CCN(C[C@H](O)CN1CCc3ccccc3C1)C2=O` (stereo partly drawn) [Example 40, 2-[(2R)-3-(3,4-dihydro-1H-isoquinolin-2-yl)-2-hydroxy-propyl]-6-(3-methylmorpholin-4-yl)-3,4-dihydroisoquinolin-1-one] registered an IC50 of 1000 to 10000 nM.

In turn, `CN(c1ccc2c(c1)CCN(C[C@H](O)CN1CCc3ccccc3C1)C2=O)C1CCCCC1` [Example 11, 6-[cyclohexyl(methyl)amino]-2-[(2R)-3-(3,4-dihydro-1H-isoquinolin-2-yl)-2-hydroxy-propyl]-3,4-dihydroisoquinolin-1-one] gave an IC50 of 1 to 100 nM.

`O=C(CO)Nc1ccc2c(c1)CCN(C[C@H](O)CN1CCc3ccccc3C1)C2=O` [Example 41, N-[2-[(2R)-3-(3,4-dihydro-1H-isoquinolin-2-yl)-2-hydroxy-propyl]-1-oxo-3,4-dihydroisoquinolin-6-yl]-2-hydroxy-acetamide] showed an IC50 of 1 to 100 nM.

Consider `O=C1c2ccc(N3CCN(C4CCOCC4)CC3)cc2CCN1C[C@H](O)CN1CCc2ccccc2C1` [Example 122, 2-[(2R)-3-(3,4-dihydro-1H-isoquinolin-2-yl)-2-hydroxy-propyl]-6-(4-tetrahydropyran-4-ylpiperazin-1-yl)-3,4-dihydroisoquinolin-1-one], for which the IC50 was 100 to 1000 nM.

Regarding `O=C1c2ccc(N3CCC(O)CC3)cc2CCN1C[C@H](O)CN1CCc2ccccc2C1` [Example 37, 2-[(2R)-3-(3,4-dihydro-1H-isoquinolin-2-yl)-2-hydroxy-propyl]-6-(4-hydroxy-1-piperidyl)-3,4-dihydroisoquinolin-1-one], the IC50 lay in the range of 1 to 100 nM.

`CC(=O)N1CCN(c2ccc3c(c2)CCN(C[C@H](O)CN2CCc4ccccc4C2)C3=O)CC1` [Example 52, 6-(4-acetylpiperazin-1-yl)-2-[(2R)-3-(3,4-dihydro-1H-isoquinolin-2-yl)-2-hydroxy-propyl]-3,4-dihydroisoquinolin-1-one] registered an IC50 of 100 to 1000 nM.

Turning to `CN(C)CCOC1CCN(c2ccc3c(c2)CCN(C[C@H](O)CN2CCc4ccccc4C2)C3=O)CC1` [Example 119, 2-[(2R)-3-(3,4-dihydro-1H-isoquinolin-2-yl)-2-hydroxy-propyl]-6-[4-[2-(dimethylamino)ethoxy]-1-piperidyl]-3,4-dihydroisoquinolin-1-one], the IC50 was 100 to 1000 nM.

In turn, `CC(=O)N1CCN(c2cc(F)c3c(c2)CCN(C[C@H](O)CN2CCc4ccccc4C2)C3=O)CC1` [Example 128, 6-(4-acetylpiperazin-1-yl)-2-[(2R)-3-(3,4-dihydro-1H-isoquinolin-2-yl)-2-hydroxy-propyl]-8-fluoro-3,4-dihydroisoquinolin-1-one] had an IC50 of 100 to 1000 nM.

`CC(=O)N1CCC(Oc2ccc3c(c2)CCN(C[C@H](O)CN2CCc4ccccc4C2)C3=O)CC1` [Example 95, 6-[(1-acetyl-4-piperidyl)oxy]-2-[(2R)-3-(3,4-dihydro-1H-isoquinolin-2-yl)-2-hydroxy-propyl]-3,4-dihydroisoquinolin-1-one]: the IC50 was in the range of 100 to 1000 nM.

As to `CS(=O)(=O)N1CCN(c2ccc3c(c2)CCN(C[C@H](O)CN2CCc4ccccc4C2)C3=O)CC1` [Example 59, 2-[(2R)-3-(3,4-dihydro-1H-isoquinolin-2-yl)-2-hydroxy-propyl]-6-(4-methylsulfonylpiperazin-1-yl)-3,4-dihydroisoquinolin-1-one], the IC50 is 100 to 1000 nM.

As to `CCCc1ccc2c(c1)CCN(C[C@H](O)CN1CCc3ccccc3C1)C2=O` [Example 13, 2-[(2R)-3-(3,4-dihydro-1H-isoquinolin-2-yl)-2-hydroxy-propyl]-6-propyl-3,4-dihydroisoquinolin-1-one], the IC50 was in the range of 1 to 100 nM.

In the case of `O=C1c2ccc(Br)cc2CCN1C[C@H](O)CN1CCc2ccccc2C1` [Example 1, 6-bromo-2-[(2R)-3-(3,4-dihydro-1H-isoquinolin-2-yl)-2-hydroxy-propyl]-3,4-dihydroisoquinolin-1-one], the IC50 lay in the range of 1 to 100 nM.

Turning to `O=C1c2ccc(-c3ccnc(F)c3)cc2CCN1C[C@H](O)CN1CCc2ccccc2C1` [Example 12, 2-[(2R)-3-(3,4-dihydro-1H-isoquinolin-2-yl)-2-hydroxy-propyl]-6-(2-fluoro-4-pyridyl)-3,4-dihydroisoquinolin-1-one], the IC50 was in the range of 1 to 100 nM.

In turn, `CC(=O)N1CCC(COc2ccc3c(c2)CCN(C[C@H](O)CN2CCc4ccccc4C2)C3=O)CC1` [Example 83, 6-[(1-acetyl-4-piperidyl)methoxy]-2-[(2R)-3-(3,4-dihydro-1H-isoquinolin-2-yl)-2-hydroxy-propyl]-3,4-dihydroisoquinolin-1-one] returned an IC50 of 100 to 1000 nM.

Values taken from patent US12331035B2, “Bicyclic compound and use thereof” (SK BIOPHARMACEUTICALS CO., LTD., priority 2019, dated 2025).
